Where a chain is given by its changes, count along the chain named.
Experiments:
[1] = molecular target: T1, His6-TTD-PHD (aa 123–366) wild type vs. H3K9me3 peptide (Homo sapiens, UniProt Q96T88); experiment: TR-FRET assay: His6-TTD-PHD wild type binding to H3K9me3 peptide; assay type: biochemical
T1 construct: made in house; host or cells: Rosetta (DE3) E. coli, pMCSG7
T1 sequence (Q96T88 123-366): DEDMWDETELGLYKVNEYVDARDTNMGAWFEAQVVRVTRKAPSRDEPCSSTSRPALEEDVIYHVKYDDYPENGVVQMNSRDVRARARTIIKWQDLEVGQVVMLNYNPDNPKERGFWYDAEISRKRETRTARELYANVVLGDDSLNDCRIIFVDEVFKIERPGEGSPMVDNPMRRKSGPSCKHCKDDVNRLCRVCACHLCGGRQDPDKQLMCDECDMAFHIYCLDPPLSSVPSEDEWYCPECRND
Experimental: To test this hypothesis, we generated two TTD-PHD mutants: (1) S298D, which mimics phosphorylation at Ser298 and (2) RR295/296AA, which prevents Arg295 and Arg296 of the TTD-PHD linker from contacting the Arg binding cavity of TTD. […] The fragment screen was carried out on low volume 384-well white plates (Corning 4512) and the assay was performed at room temperature. The TR-FRET reagent mix contained 200 nM of biotinylated-H3K9me3 peptide (Anaspec), 250 nM of His6-TTD, 25 nM of streptavidin-d2 (CisBio), and 1 × anti-6His-Tb cryptate Gold (Cisbio) in TR-FRET buffer (50 mM sodium phosphate, pH 7, 150 mM NaCl, 1 mM DTT, and 0.1% Triton-X-100). During the screen, 5 μl of TR-FRET reagent mix was dispensed into each well, and 100 nl of chemical fragments stock (10 mM in DMSO) was added to each well by pintool using Tecan Freedom Evo liquid handler to make the final compound concentration 196 μM. After 1 h of incubation, the fluorescent signals at 665 nm and 620 nm of each plate were measured by the Tecan Infinite M1000 plate reader (excitation 340 nm, 60 μs lag time, and 500 μs integration time) and the TR-FRET signal was calculated by the ratio of 665 nm/620 nm fluorescent signal. For the fragment screen, on seven of the library plates there were 32-wells of DMSO control, while there were 8-wells of DMSO control in the last plate. The TR-FRET assays for the interactions between His6-TTD-PHD and His6-UHRF1-FL binding to biotinylated-H3K9me3 (1-20) peptide were similar to the assay for His6-TTD. The only difference was that the final concentration of […] assay, while the final concentration of His6-UHRF1-FL was 200 nM and biotin-H3K9me3 peptide was 100 nM for the His6-UHRF1-FL TR-FRET assay. The buffer pH was 7.5 for the His6-TTD-PHD and His6-UHRF1-FL assays. The His6-TTD and His6-TTD-PHD proteins (30 μM) were treated with PKA (P2645, Sigma) at 0.5 U/μl at 30 °C for 1 h in the reaction buffer (50 mM Tris, pH 7.5, 10 mM MgCl2, 0.02% Triton-X-100, 1 mM ATP, 1 mM DTT). The untreated sample was incubated at 30 °C for 1 h in same buffer condition without the addition of PKA. […]

[2] = molecular target: T2, TTD-PHD RR295/296AA mutant vs. H3K9me3 peptide (Homo sapiens, UniProt Q96T88, R295A/R296A); experiment: TR-FRET assay: TTD-PHD RR295/296AA mutant binding to H3K9me3 peptide; assay type: biochemical; settings: 2.5 mM 2,4-lutidine
T2 construct: made in house; host or cells: E. coli (host printed for TTD-PHD in general: Rosetta (DE3))
T2 sequence (Q96T88 123-366 R295A/R296A): T1 sequence (Q96T88 123-366) with R173A, R174A
Experimental: The fragment screen was carried out on low volume 384-well white plates (Corning 4512) and the assay was performed at room temperature. […] After 1 h of incubation, the fluorescent signals at 665 nm and 620 nm of each plate were measured by the Tecan Infinite M1000 plate reader (excitation 340 nm, 60 μs lag time, and 500 μs integration time) and the TR-FRET signal was calculated by the ratio of 665 nm/620 nm fluorescent signal. For the fragment screen, on seven of the library plates there were 32-wells of DMSO control, while there were 8-wells of DMSO control in the last plate. […] The only difference was that the final concentration of […] assay, while the final concentration of His6-UHRF1-FL was 200 nM and biotin-H3K9me3 peptide was 100 nM for the His6-UHRF1-FL TR-FRET assay. The buffer pH was 7.5 for the His6-TTD-PHD and His6-UHRF1-FL assays.

Cc1ccnc(C)c1 [2,4-lutidine]
inhibition of His6-TTD-PHD interaction with H3K9me3 peptide (in words) ([1]; dose-response, side by side with His6-TTD): only weakly inhibits | effect of PKA treatment of His6-TTD-PHD on inhibition of H3K9me3 peptide binding (in words) ([1]; protein treated with PKA and ATP 1 h at 30 °C): improves the ability | inhibition of binding to H3K9me3 peptide ([1]; wild type TTD-PHD, 2.5 mM 2,4-lutidine): 7.9% | inhibition of binding to H3K9me3 peptide [2]: 57.6%
